This note sets out measurements from US11358939B2, “1,4-benzodiazepin-2-one derivatives and use thereof” (priority 2017, dated 2022).

What all share (format): in vivo
Assay [1] relates to writhes induced by intraperitoneal acetic acid. Description: Analgesic activity, acetic acid-induced writhing test (peripheral pain model). The note with it: for Writhing inhibition, % of control in 1 mg/kg dose: 1 mg/kg intraperitoneally, 40 min before 0.75% acetic acid; for ED50: ip; for ED50 / ED50, analgesic activity in writhing test: intraperitoneal, Prozorovsky method. On the procedure:
Assessment of analgesic activity was performed in a model of peripheral pain based on chemical pain induced by intraperitoneal administration of acetic acid, leading to involuntary contractions of abdominal muscles, termed “writhes”, accompanied by hind leg extension and spine arching. The writhes were induced by 0.75% solution of acetic acid, which was administered intraperitoneally 40 min after intraperitoneal administration of test compounds in 0.001-5 mg/kg dose range. […] Analgesic activity was assessed by the ability of the compounds to reduce the number of writhes in test group compared to control group, and indicated as percentage using the following formula: AA=(Wc−Wt/Wc)×100%,
where AA—analgesic activity in %;
Wc—average number of writhes in control group;
Wt—average number of writhes in test group
Test compounds were studied in comparison with the reference drug sodium diclofenac in 10 mg/kg dose. ED50 was calculated using Prozorovsky method.

Assay [2] has as its system number of drinking actions despite electric shock. Description: Anxiolytic activity, conflict situation model (drinking versus electric shock). The note with it: for Anxiolytic activity assessed using conflict situation method (5 mg/kg): number of drinking actions despite electric shock, 30 min before test. The protocol:
Anxiolytic activity was assessed in a model of conflict situation based on the conflict of two reflexes (drinking and defensive) when drinking water from a water fountain. Anxiolytic activity was assessed by the number of drinking actions despite electric shock.
(§1) Diazepam drug was used as the reference drug. All test compounds and the reference drug diazepam were administered in a suspension with Tween-80 in 5 mg/kg dose 30 min before the start of experiments.

Assay [3] concerns general movement activity of animals. Briefly: General movement activity, open field test. The note with it: for General movement activity (5 mg/kg): open field 3 min, sum of rearings, transitions, explored holes, 30 min before test; for Sedative properties (words, from general movement activity versus control): 5 mg/kg. The protocol:
General movement activity was assessed in an open field test. While the animals were in the open field (3 min), the number of rearings (vertical movement activity), transitions between squares (horizontal movement activity) and the number of explored holes (exploratory activity) were registered. The sum of these values is general movement activity.
as §1

In a further assay the test system is food consumption by rats. Briefly: Action on appetite, Anorexia method (liquid food consumption). The conditions noted are these: for Reduction in appetite and food consumption compared to control: Table 6 dose 0,1 mg/kg; for Amount of consumed liquid food during 30 min in ml / Food consumption, % of control: dose 0,1 mg/kg intraperitoneally. The protocol: Studies of pharmacological activity of 3-arylamino-1,3-dihydro-2H-benzo[e][1,4]diazepin-2-ones, namely, their action of appetite, assessment of antihypoxic and antidepressant activity was performed in white male rats with body mass 150-180 g and male mice with body mass 18-22 g. The animals were kept on a standard laboratory diet and natural lighting. Animals of control group were given a water-Tween suspension. Test compounds were administered in a suspension with Tween-80 Reference drugs were the hormone leptin, in 0.0002 mg/kg dose, and a well-known antidepressant amitriptyline (solution for injections in 1 ml vials. Test compounds and the water-Tween suspension were administered in a dose of 0.2 ml/100 g of rat body mass.
The action of the compounds on rat appetite was studied using «norexia» method. For 2 weeks in an experimental equipment the rats were conditioned to consume liquid food. Then a water-Tween suspension of test articles was administered intraperitoneally to conditioned animals one day before the experiment. After 40 minutes the animals were allowed access to liquid food and the amount of consumed food (in ml) of every rat was registered every 30 minutes for 3 hours. The next day after 2 hours of deprivation the rats in control group were administered a water-Tween suspension intraperitoneally, while the test group was administered the test articles. After 40 minutes the animals were allowed access to liquid food and the amount of consumed food (in ml) of every rat was registered every 30 minutes for 3 hours. Then all food consumption values for each rat were summed and compared to control values. The control group has consumed on average 7 ml of liquid food per 30 minutes. The effect was calculated in percentage compared to control.

Turning to `COC(=O)CN1C(=O)C(Nc2ccccc2[N+](=O)[O-])N=C(c2ccccc2)c2cc(OC(F)(F)F)ccc21` (centres unmarked) [Compound 227], the “Writhing inhibition, % of control in 1 mg/kg dose” value (“Writhing inhibition, % of control” for short) in assay [1] (compounds Ib) worked out at 60%. In assay [2] (5 mg/kg), the “Anxiolytic properties” value was “potent anxiolytic properties”. The “Anxiolytic activity assessed using conflict situation method (5 mg/kg)” value (shortened to “Anxiolytic activity assessed”) in assay [2] is given as 109.5 ± 8.3. In assay [3], the “General movement activity (5 mg/kg)” value was found to be 13.0 ± 1.3.

On to `O=C1Nc2ccc([N+](=O)[O-])cc2C(c2ccccc2)=NC1Nc1ccccc1Cl` (centres unmarked) [Compound 248], for which, in the assay with food consumption by rats, the “Reduction in appetite and food consumption compared to control” value is listed as 41%; the “Amount of consumed liquid food during 30 min in ml” value (shortened to “Amount”) is recorded as 3,1 ± 2,4 ml; the “Food consumption, % of control” value came out at 41%.

With `COC(=O)CN1C(=O)C(Nc2cccc(C(C)=O)c2)N=C(c2ccccc2F)c2cc(Br)ccc21` (centres unmarked) [Compound 90], the “Writhing inhibition, % of control” value in assay [1] (compounds Ib) was determined as 68%. Further, in assay [2], the “Anxiolytic activity assessed” value came to 8.2 ± 3.4. Also, the “General movement activity (5 mg/kg)” value in assay [3] was determined as 24.5 ± 2.3.

For the compound `O=C1Nc2ccc(OC(F)(F)F)cc2C(c2ccccc2)=NC1Nc1cccc(Cl)c1` (centres unmarked) [Compound 195], in the assay with food consumption by rats, the “Amount” value is 5,7 ± 2,2 ml and the “Food consumption, % of control” value is on record as 77%.

For `CC(=O)c1cccc(NC2N=C(c3ccccc3F)c3cc([N+](=O)[O-])ccc3NC2=O)c1` (centres unmarked) [Compound 348], in the assay with food consumption by rats, the “Amount” value was 21,4 ± 4,9 ml and the “Food consumption, % of control” value is 284%.

`CCCCOC1N=C(c2ccccc2)c2cc(Cl)ccc2N(CC(=O)OC)C1=O` (centres unmarked) [Compound 23]: the “Writhing inhibition, % of control” value in assay [1] (compounds Ia) came to 52%.

Turning to `O=C1Nc2ccc([N+](=O)[O-])cc2C(c2ccccc2Cl)=NC1Nc1ccccc1Br` (centres unmarked) [Compound 320], in the assay with food consumption by rats, the “Amount” value is 6,5 ± 3,4 ml and the “Food consumption, % of control” value amounted to 88%.

Consider `COC(=O)CN1C(=O)C(Nc2ccccc2F)N=C(c2ccccc2Cl)c2cc([N+](=O)[O-])ccc21` (centres unmarked) [Compound 317], for which, in assay [1] (compounds Ib), the “Writhing inhibition, % of control” value came to 63%. Moreover, the “Anxiolytic activity assessed” value in assay [2] is 33.4 ± 3.2. In assay [3], the “Sedative properties (words, from general movement activity versus control)” value is recorded as “don't have sedative properties” and the “General movement activity (5 mg/kg)” value is 47.0 ± 3.7.

For the compound `COC(=O)CN1C(=O)C(Nc2cccc([N+](=O)[O-])c2)N=C(c2ccccc2)c2cc([N+](=O)[O-])ccc21` (centres unmarked) [Compound 282], the “Writhing inhibition, % of control” value in assay [1] (compounds Ib) is reported as 59%. In assay [2], the “Anxiolytic activity assessed” value was 44.7 ± 3.9. Moreover, in assay [3], the “General movement activity (5 mg/kg)” value is reported as 19.0 ± 2.4.

Regarding `CC(=O)c1ccc(NC2N=C(c3ccccc3F)c3cc([N+](=O)[O-])ccc3NC2=O)cc1` (centres unmarked) [Compound 349], in the assay with food consumption by rats, the “Amount” value is 14 ± 1,8 ml and the “Food consumption, % of control” value is listed as 189%.

For `O=C1Nc2ccc(Cl)cc2C(c2ccccc2)=NC1Nc1cccc(Br)c1` (centres unmarked) [Compound 162], in the assay with food consumption by rats, the “Amount” value was 5,1 ± 2,2 ml and the “Food consumption, % of control” value amounted to 69%.

In the case of `O=C1Nc2ccc([N+](=O)[O-])cc2C(c2ccccc2Cl)=NC1Nc1cccc(Br)c1` (centres unmarked) [Compound 321], in the assay on food consumption by rats, the “Amount” value is reported as 6,1 ± 3,2 ml and the “Food consumption, % of control” value is reported as 82%.

For `O=C1Nc2ccc([N+](=O)[O-])cc2C(c2ccccc2)=NC1Nc1cccc(Cl)c1` (centres unmarked) [Compound 249], in the assay on food consumption by rats, the “Amount” value was 5,1 ± 2,2 ml and the “Food consumption, % of control” value came out at 69%.

For `COC(=O)CN1C(=O)C(Nc2cccc(Br)c2)N=C(c2ccccc2Cl)c2cc([N+](=O)[O-])ccc21` (centres unmarked) [Compound 327], in assay [1] (compounds Ib), the “Writhing inhibition, % of control” value came to 70%. In assay [2], the “Anxiolytic activity assessed” value is reported as 43.4 ± 3.2. In addition, in assay [3], the “Sedative properties (words, from general movement activity versus control)” value is “don't have sedative properties” and the “General movement activity (5 mg/kg)” value turned out to be 45.0 ± 3.7.

In turn, `O=C(O)Cc1ccccc1Nc1c(Cl)cccc1Cl` [sodium diclofenac, reference compound] registered a median effective dose (ED50) in assay [1] of 10 ± 1.8 mg/kg.

Turning to `COC(=O)CN1C(=O)C(Nc2ccc(C(F)(F)F)cc2)N=C(c2ccccc2F)c2cc([N+](=O)[O-])ccc21` (centres unmarked) [Compound 400], in assay [1] (compounds Ib), the “Writhing inhibition, % of control” value is recorded as 60%. In assay [2], the “Anxiolytic activity assessed” value stood at 32.2 ± 3.3. For the same compound, in assay [3], the “General movement activity (5 mg/kg)” value worked out at 36.5 ± 3.3.

In the case of `CN1C(=O)CN=C(c2ccccc2)c2cc(Cl)ccc21` [Diazepam, reference compound], the “Anxiolytic activity assessed” value in assay [2] is listed as 120.0 ± 4.9. In assay [3], the “General movement activity (5 mg/kg)” value worked out at 32.5 ± 2.8.

Regarding `COC(=O)CN1C(=O)C(Nc2ccccc2Br)N=C(c2ccccc2Cl)c2cc([N+](=O)[O-])ccc21` (centres unmarked) [Compound 326], the “Writhing inhibition, % of control” value in assay [1] (compounds Ib) is given as 62%. For the same compound, the “Anxiolytic activity assessed” value in assay [2] is 45.1 ± 2.6. Further, the “General movement activity (5 mg/kg)” value in assay [3] was determined as 22.0 ± 2.0.

With `O=C1Nc2ccc(Cl)cc2C(c2ccccc2)=NC1Nc1ccccc1F` (centres unmarked) [Compound 152], in the assay with food consumption by rats, the “Amount” value is recorded as 3,5 ± 1,3 ml and the “Food consumption, % of control” value amounted to 47%.

`O=C1Nc2ccc(Cl)cc2C(c2ccccc2)=NC1Nc1ccc(Br)cc1` (centres unmarked) [Compound 163]: in the assay with food consumption by rats, the “Amount” value is 6,8 ± 2,7 ml and the “Food consumption, % of control” value stood at 92%.

In the case of `O=C1Nc2ccc(OC(F)(F)F)cc2C(c2ccccc2)=NC1Nc1ccc(Cl)cc1` (centres unmarked) [Compound 196], in the assay with food consumption by rats, the “Amount” value was 6,5 ± 3,2 ml and the “Food consumption, % of control” value turned out to be 88%.

As to `O=C1Nc2ccc([N+](=O)[O-])cc2C(c2ccccc2Cl)=NC1Nc1ccc(Br)cc1` (centres unmarked) [Compound 322], in the assay with food consumption by rats, the “Amount” value is given as 7,8 ± 2,7 ml and the “Food consumption, % of control” value is 105%.

On to `O=C1Nc2ccc(Cl)cc2C(c2ccccc2)=NC1Nc1ccccc1Br` (centres unmarked) [Compound 161], for which, in the assay with food consumption by rats, the “Amount” value is 5,5 ± 2,4 ml and the “Food consumption, % of control” value is recorded as 74%.

As to `CCCOC1N=C(c2ccccc2)c2cc(Cl)ccc2N(CC(=O)OC)C1=O` (centres unmarked) [Compound 22], the “Writhing inhibition, % of control” value in assay [1] (compounds Ia) is on record as 70%. For the same compound, the “ED50, analgesic activity in writhing test” value in assay [1] turned out to be 0.08 ± 0.02 mg/kg.

In assay [1], `COc1ccc2c(c1)c(CC(=O)O)c(C)n2C(=O)c1ccc(Cl)cc1` [indomethacin, reference compound] came in with a 50% effective dose (ED50) of 1.5 ± 0.26 mg/kg.

For `CCOC1N=C(c2ccccc2)c2cc(Cl)ccc2N(CC(=O)OC)C1=O` (centres unmarked) [Compound 21], in assay [1] (compounds Ia), the “Writhing inhibition, % of control” value stood at 62%. In assay [1], the “ED50, analgesic activity in writhing test” value is 0.29 ± 0.025 mg/kg.

In the case of `O=C1Nc2ccc([N+](=O)[O-])cc2C(c2ccccc2F)=NC1Nc1ccc(Cl)cc1` (centres unmarked) [Compound 358], in the assay on food consumption by rats, the “Effect on appetite” value was “hyperphagic effect”; the “Amount” value was 6,7 ± 3,2 ml; the “Food consumption, % of control” value was determined as 90%.

Turning to `CC(=O)c1ccccc1NC1N=C(c2ccccc2F)c2cc([N+](=O)[O-])ccc2NC1=O` (centres unmarked) [Compound 347], in the assay with food consumption by rats, the “Amount” value is on record as 6,5 ± 2,7 ml and the “Food consumption, % of control” value was found to be 105%.

For `O=C1Nc2ccc([N+](=O)[O-])cc2C(c2ccccc2F)=NC1Nc1ccccc1Cl` (centres unmarked) [Compound 356], in the assay with food consumption by rats, the “Reduction in appetite and food consumption compared to control” value was 39%; the “Amount” value is recorded as 2,9 ± 2,1 ml; the “Food consumption, % of control” value is recorded as 39%.
